Assay [1] has as its target T1, SOS1 protein (Homo sapiens, UniProt Q07889).
T1 sequence (Q07889 1-1333): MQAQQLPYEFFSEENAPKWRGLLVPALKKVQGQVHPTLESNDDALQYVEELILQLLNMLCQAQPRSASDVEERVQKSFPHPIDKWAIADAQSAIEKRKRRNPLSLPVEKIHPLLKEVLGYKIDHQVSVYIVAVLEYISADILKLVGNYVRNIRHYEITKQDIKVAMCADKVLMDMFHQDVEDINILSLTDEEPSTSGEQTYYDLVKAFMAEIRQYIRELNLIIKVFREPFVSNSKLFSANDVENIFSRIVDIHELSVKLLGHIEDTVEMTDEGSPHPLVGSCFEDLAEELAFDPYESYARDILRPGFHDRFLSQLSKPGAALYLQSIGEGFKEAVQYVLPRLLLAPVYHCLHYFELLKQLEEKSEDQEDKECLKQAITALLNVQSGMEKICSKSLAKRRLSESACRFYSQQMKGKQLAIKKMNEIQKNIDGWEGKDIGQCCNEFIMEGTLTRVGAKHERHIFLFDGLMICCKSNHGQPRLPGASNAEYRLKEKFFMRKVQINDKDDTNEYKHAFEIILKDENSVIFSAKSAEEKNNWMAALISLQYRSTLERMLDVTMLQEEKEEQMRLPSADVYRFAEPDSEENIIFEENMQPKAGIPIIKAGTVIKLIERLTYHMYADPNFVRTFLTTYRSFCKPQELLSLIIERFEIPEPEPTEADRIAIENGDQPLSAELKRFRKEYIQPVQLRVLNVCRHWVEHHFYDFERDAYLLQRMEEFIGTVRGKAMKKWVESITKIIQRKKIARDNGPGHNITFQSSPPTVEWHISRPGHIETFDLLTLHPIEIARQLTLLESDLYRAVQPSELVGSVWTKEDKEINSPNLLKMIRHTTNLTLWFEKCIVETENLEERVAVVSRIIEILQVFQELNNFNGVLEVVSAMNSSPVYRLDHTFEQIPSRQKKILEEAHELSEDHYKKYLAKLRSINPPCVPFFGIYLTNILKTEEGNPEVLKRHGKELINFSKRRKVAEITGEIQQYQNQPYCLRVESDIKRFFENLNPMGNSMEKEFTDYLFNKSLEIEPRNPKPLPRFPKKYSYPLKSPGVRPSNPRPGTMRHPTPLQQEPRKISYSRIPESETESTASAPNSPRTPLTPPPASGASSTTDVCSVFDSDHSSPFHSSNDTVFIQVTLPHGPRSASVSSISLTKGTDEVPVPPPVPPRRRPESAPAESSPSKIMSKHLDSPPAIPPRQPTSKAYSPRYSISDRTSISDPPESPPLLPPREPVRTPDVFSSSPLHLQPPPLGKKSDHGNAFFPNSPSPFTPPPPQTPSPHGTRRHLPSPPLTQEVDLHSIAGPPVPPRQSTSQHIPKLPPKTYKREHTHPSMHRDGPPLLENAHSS
The assay can be described thus: SOS1 degradation assay (Western blot), DLD-1 cells. The class given is cell-based. The arrangement: host or cells: DLD-1 (human cancer cell lines). As to conditions: 24 h; for DC50: read-out: DLD-1 (G13D) DC50; for Dmax: read-out: DLD-1 (G13D) Dmax. Here is the method:
The specific procedures were as follows:
0.95 mL of cells were seeded into each well of a 24-well cell culture plate to achieve a cell density of 5×10^5 cells/well; the cell plate was incubated in an incubator at 37° C. with 5% CO2 overnight. Then 50 μL of the compound solution after dilution was added to each of the wells with the corresponding cells, so that the final concentration of the compound was in a range of 0.03-3000 nM. […] After dosing, the cell plate was incubated in an incubator at 37° C. with 5% CO2 for 24 h. […] After the plate was left to stand on ice for 30 min, the protein lysate in each well was transferred to a 1.5 mL centrifuge tube and centrifuged at 15000 g for 20 min at 4° C. The cell lysate supernatant after centrifugation was cryopreserved at −80° C. for testing and was used for determining the degradation level of the SOS1 protein by a WB method. The concentration of total protein in the cell lysate supernatant was determined using the BCA Protein Quantification Kit (Tiangen, PA115-02).
The concentration of total protein in the cell lysate was determined by BCA. The total protein was adjusted to 0.5 μg/μL with PBS and 5× SDS-PAGE protein loading buffer (Beyotime, P0015L), incubated in a water bath at 100° C. for 15 min, incubated in an ice bath on ice for 5 min, centrifuged at 14000 g for 1 min at 4° C., and mixed well as a loading sample for WB. Protein electrophoresis was performed on a precast gel (KeyGEN, KGMGO10W15) with a loading volume of 10 μL (total protein: 5 μg) using a Tris-MOPS-SDS running solution (Adamas, P1598253) at a constant voltage of 120 V for 55 min. After the electrophoresis, the protein on the gel strip was transferred to a PVDF membrane at a constant current of 250 mA for 65 min. After the membrane transfer, the membrane was incubated in 1× QuickBlock blocking buffer (Beyotime, P0235) for 30 min at room temperature. […] The protein map was subjected to gray value analysis by the chemiluminescence imaging system from Clinx. […] Then the degradation rate was calculated by comparing the gray correction value with the gray correction value of the control group. Then nonlinear curve fitting was performed by GraphPad Prism 8 in the logarithmic concentration-inhibition rate to obtain the DC50 and Dmax values of the compounds.
Background: Immunoblotting shows a protein as a band on a membrane.

Assay [2] concerns the target T1, SOS1 protein. Briefly: SOS1 degradation assay (Western blot), NCI-H358 cells. The assay is classed as cell-based. Details: The degradation of SOS1 by the compounds was investigated on KRAS G12C mutant human non-small cell lung cancer cells NCI-H358; host or cells: NCI-H358 (human cancer cell lines). Conditions: SOS1 degradation, NCI-H358 cells, 24 h, Western blot; for DC50: read-out: NCI-H358 (G12C) DC50; for Dmax: read-out: NCI-H358 (G12C) Dmax. In short, it runs like this: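 Cells at 5×10^5 per well were treated for 24 h at 37 °C with compound at 0.03–3000 nM final. SOS1 in lysates was measured by Western blot with chemiluminescent densitometry and normalised to the control group. DC50 and Dmax came from nonlinear fits against log concentration.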

Where only a bound is given, the exact number is not on record here.

As usually defined, the DC50 is the concentration at which degradation of the target reaches its halfway point. As usually defined, the Dmax is the largest share of the target that was removed.

Consider `COc1cc2nc(C)nc(N[C@H](C)c3cc(N)cc(C(F)(F)F)c3)c2cc1[C@H]1CC[C@H](C(=O)N2CCN(CCOCC3CCN(C(=O)c4ccc(Cl)c(N5CCC(=O)NC5=O)c4)CC3)CC2)CC1` [Example 33, 1-(5-(4-((2-(4-((1R,4R)-4-(4-(((R)-1-(3-amino-5-(trifluoromethyl)phenyl)ethyl)amino)-7-methoxy-2-methylquinazolin-6-yl)cyclohexane-1-carbonyl)piperazin-1-yl)ethoxy)methyl)piperidine-1-carbonyl)-2-chlorophenyl)dihydropyrimidine-2,4(1H,3H)-dione], for which, at SOS1 protein [1], the DC50 fell in the range of 100 to 500 nM and the Dmax was in the range of 80 to 100%. Further, at SOS1 protein [2], the DC50 was under 50 nM and the Dmax fell in the range of 80 to 100%.

In the case of `COc1cc2nc(C)nc(N[C@H](C)c3cc(N)cc(C(F)(F)F)c3)c2cc1[C@H]1CC[C@H](C(=O)N2CCC(CCOCC3CCN(C(=O)c4ccc(Cl)c(N5CCC(=O)NC5=O)c4)CC3)CC2)CC1` [Example 19, 1-(5-(4-((2-(1-((1R,4R)-4-(4-(((R)-1-(3-amino-5-(trifluoromethyl)phenyl)ethyl)amino)-7-methoxy-2-methylquinazolin-6-yl)cyclohexane-1-carbonyl)piperidin-4-yl)ethoxy)methyl)piperidine-1-carbonyl)-2-chlorophenyl)dihydropyrimidine-2,4(1H,3H)-dione], at SOS1 protein [1], the DC50 fell in the range of 50 to 100 nM and the Dmax was in the range of 80 to 100%. Besides, at SOS1 protein [2], the 50% degradation concentration (DC50) was 100 to 500 nM and the Dmax lay in the range of 50 to 80%.

In the case of `COc1cc2nc(C)nc(N[C@H](C)c3cc(N)cc(C(F)(F)F)c3)c2cc1[C@H]1CC[C@H](C(=O)N2CCN(CC3CCC4(CC3)CCN(C(=O)c3ccc(Cl)c(N5CCC(=O)NC5=O)c3)CC4)CC2)CC1` [Example 2, 1-(5-(9-((4-((1R,4R)-4-(4-(((R)-1-(3-amino-5-(trifluoromethyl)phenyl)ethyl)amino)-7-methoxy-2-methylquinazolin-6-yl)cyclohexane-1-carbonyl)piperazin-1-yl)methyl)-3-azaspiro[5.5]undecane-3-carbonyl)-2-chlorophenyl)dihydropyrimidine-2,4(1H,3H)-dione], the half-maximal degradation concentration (DC50) at SOS1 protein [1] and at SOS1 protein [2] was under 50 nM throughout. In addition, the Dmax on SOS1 protein [1] and on SOS1 protein [2] was 80 to 100% in each case.

As to `COc1cc2nc(C)nc(N[C@H](C)c3cc(N)cc(C(F)(F)F)c3)c2cc1[C@H]1CC[C@H](C(=O)N2CCN(CCC3CCC4(CC3)CCN(C(=O)c3ccc(Cl)c(N5CCC(=O)NC5=O)c3)CC4)CC2)CC1` [Example 1, 1-(5-(9-(2-(4-((1R,4R)-4-(4-(((R)-1-(3-amino-5-(trifluoromethyl)phenyl)ethyl)amino)-7-methoxy-2-methylquinazolin-6-yl)cyclohexane-1-carbonyl)piperazin-1-yl)ethyl)-3-azaspiro[5.5]undecane-3-carbonyl)-2-chlorophenyl)dihydropyrimidine-2,4(1H,3H)-dione], at SOS1 protein [1], the DC50 is under 50 nM and the Dmax was 80 to 100%. For the same compound, on SOS1 protein [2], the DC50 is under 50 nM and the Dmax was in the range of 80 to 100%.

As for `CNCc1ccccc1-c1csc([C@@H](C)Nc2nc(C)nc3cc(OC)c([C@H]4CC[C@H](C(=O)N5CCN(CC6CCC7(CC6)CCN(C(=O)c6ccc(OC)c(N8CCC(=O)NC8=O)c6)CC7)CC5)CC4)cc23)c1` [Example 73, 1-(2-methoxy-5-(9-((4-((1R,4R)-4-(7-methoxy-2-methyl-4-(((R)-1-(4-(2-((methylamino)methyl)phenyl)thien-2-yl)ethyl)amino)quinazolin-6-yl)cyclohexane-1-carbonyl)piperazin-1-yl)methyl)-3-azaspiro[5.5]undecane-3-carbonyl)phenyl)dihydropyrimidine-2,4(1H,3H)-dione], the values for the DC50 on SOS1 protein [1] and on SOS1 protein [2] were 50 to 100 nM and under 50 nM, respectively. Besides, the Dmax at SOS1 protein [1] and at SOS1 protein [2] was 80 to 100% throughout.

For `COc1cc2nc(C)nc(N[C@H](C)c3cccc4c3CCS4(=O)=O)c2cc1[C@H]1CC[C@H](C(=O)N2CCN(CC3CCC4(CC3)CCN(C(=O)c3ccc(Cl)c(N5CCC(=O)NC5=O)c3)CC4)CC2)CC1` [Example 10, 1-(2-chloro-5-(9-((4-((1R,4R)-4-(4-(((R)-1-(1,1-dioxo-2,3-dihydrobenzo[b]thiophen-4-yl)ethyl)amino)-7-methoxy-2-methylquinazolin-6-yl)cyclohexane-1-carbonyl)piperazin-1-yl)methyl)-3-azaspiro[5.5]undecane-3-carbonyl)phenyl)dihydropyrimidine-2,4(1H,3H)-dione], at SOS1 protein [1], the DC50 is under 50 nM and the Dmax is 80 to 100%. At SOS1 protein [2], the DC50 is under 50 nM and the Dmax lay within 50 to 80%.

The record behind these values is patent publication US20240261417A1, “SOS1 DEGRADING AGENT AND PREPARATION METHOD THEREFOR AND APPLICATION THEREOF” (SHANGHAI LEADINGTAC PHARMACEUTICAL CO. LTD., priority 2021, published 2024).
